Data taken from the NIST ThermoML archive (doi:10.1016/j.jct.2018.03.027).

Experiment: mn = molality of the nth substance listed, in mol/kg
Settings: 100 kPa, Liquid, Pycnometric method

O=C([O-])[O-].[Li+].[Li+] [lithium carbonate] + O
Settings	mass density [kg/m3]
283.15 K, m1 = 0.1933	1007.2
298.15 K, m1 = 0.1738	1003.8
303.15 K, m1 = 0.1676	1002.2
313.15 K, m1 = 0.1558	998.3
323.15 K, m1 = 0.1454	993.7
333.15 K, m1 = 0.1352	988.5
343.15 K, m1 = 0.1251	982.6
353.15 K, m1 = 0.1149	976.2
363.15 K, m1 = 0.106	969.4
368.15 K, m1 = 0.1015	965.2
